Results on ten compounds are retold here after US6642250B2, “1,8-naphthyridin-2(1H)-one derivatives” (Grelan Pharmaceutical Co., Ltd., priority 1999, dated 2003).

Read-outs that look alike come from different tables or passages of the source. Some results are limits rather than exact numbers.

For data set [1], the system named is actively sensitized guinea pigs. Description: Inhibition of antigen-induced immediate asthmatic response (airway resistance, Konzett-Rossler method). The data set is classed as in vivo, guinea pig. The conditions noted are these: for inhibition in vivo at 3 mg/kg: Cavia porcellus, po, orally, 60 minutes prior to antigen-challenge, average of 3 animals, read-out: % Reduction of Increase in Airway Resistance; for % reduction of increase in airway resistance: oral administration at a dose of 1 mg/kg. On the procedure: (1) Active Sensitization of Guinea Pigs
Male Hartley outbred guinea pigs were sensitized by administering intraperitoneally physiological saline (0.5 ml) containing ovalbumin (1 mg, antigen) and 5×10^9 inactivated Bordetella pertussis dead cells (adjuvant).
Eleven to thirteen days after the first sensitization, 0.05 ml of an ovalbumin solution (1 mg/ml) (ovalbumin is dissolved in physiological saline) was administered to the lateroabdominal region of each guinea pig intracutaneously. An establishment of sensitization was checked relying on cutaneous reaction. Only guinea pigs wherein significant reddening responses occurred 5 to 10 minutes later were employed in the next measurement test for airway resistance.
(2) Measurement for Airway Resistance in Actively Sensitized-Guinea Pigs
The guinea pigs (3 animals per group) actively sensitized in the above step (1) were employed to measure for their airway pressure according to Konzett-Rossler method (Arch. Exp. Path. Pharmakol., 195, 71 (1940)).
Thirteen days after the final sensitization, guinea pigs fasted overnight, and were on the next day anesthetized with a pentobarbital solution (60 mg/1.2 ml/kg, dissolved in physiological saline, intraperitoneal administration). After the guinea pigs were fixed in a supine position, their trachea was incised followed by insertion with one port of a 4-port cannula. Among the remaining 3 ports, 2 ports were connected to an artificial respirator (Model 683, Harvard). The animals were ventilated with 10 ml/kg of air per ventilation at a rate of 60 beats/min via the artificial respirator from the cannula. One port remainder was connected to a respiratory amplifier (AR-601G, Nihon Kohden, Japan) via an airflow resistance tube (TV-241T, Nihon Kohden, Japan) and a differential pressure transducer (TP-602T, Nihon Kohden, Japan) connected with a control box (RY-111S, Nihon Kohden, Japan). From a catheter inserted into a left carotid artery, blood pressures were monitored with a blood pressure measurement unit (AP641G, NEC Corp., Japan) via a blood pressure transducer (TP-300T, Nihon Kohden, Japan), and heart rates were recorded on a thermal recorder (WT-685G, Nihon Kohden, Japan), relying on blood pressure pulse waves after being led to a cardiograph unit (AT601G, Nihon Kohden, Japan).
After airway pressure became stable, an ovalbumin solution (1 mg/ml, dissolved in physiological saline) was administered at a dose of 1 ml/kg via a tube with which the right jugular vein of guinea pigs was cannulated. Each area under airway pressure-time curve (AUC) was obtained by measuring amplitudes of the airway pressure prior to the antigen-challenge, 1, 2, 3, 4, 5, 10, 15 and 20 minutes post-challenge, and each percent increase (%) in airway resistance was further calculated according to the following equation: [formula]
[…] Control groups received only 0.5% CMC—Na solution in an equivalent amount. The pentobarbital-anesthetization and tracheal incision were conducted 30 minutes prior to the antigen-challenge.
Each percent reduction of increase in airway resistance (each test compound-administered group versus control group) was calculated according to the equation given below. The results are shown in Table 2 wherein each value is an average of 3 animals. Rolipram as described in Assay Example 1 was used for the reference compound in this assay. [formula]
For a comparison with compounds as disclosed in JP, A, 63-159382 (1988), the percent reduction of increase in airway resistance was obtained for the compounds of the present invention (oral administration at a dose of 1 mg/kg), the compounds in Table 1 of JP, A, 63-159382 (1988) (oral administration at a dose of 1 mg/kg), and rolipram (reference compound; oral administration at a dose of 3 mg/kg), respectively, in the same assay manner as in the aforementioned Assay Example 2.

For the next data set, the system named is Female beagles. The class given is in vivo. The conditions noted are these: fed female beagles, oral, emesis within 3 hours. As for the experimental part: Female beagles (each group consisting of 3 dogs) as used herein were fed. One hour later, a suspension of each test compound in 0.5% CMC—Na solution was administered orally to the animals in a forced manner. […] Next, each maximum tolerance dose against emesis was obtained. […]

For data set [2], the system named is LPS-induced TNFα production in mouse peritoneal macrophages. Put plainly: Inhibition of TNF-α production in LPS-stimulated macrophages. The class given is cell-based. To be noted: Peritoneal macrophage, LPS 0.1 μg/ml, 4 hours. On the procedure: In order to measure inhibitory activity on LPS-induced TNFα production in mouse peritoneal macrophages according to Eur. J. Pharmacol., 230, 9-14 (1993), the following assay was employed. 1) Preparation of Mouse Peritoneal Macrophages Ten percent proteose peptone (2 ml/animal) was administered intraperitoneally to male C3H/HeN mice (6- to 8-week-old) for inducing peritoneal macrophages. Four days after the proteose peptone administration, mice were sacrificed by the dislocation of cervical vertebrate, bled with cutting of their carotid artery, douched intraperitoneally with ice-cooled RPMI 1640 (6 ml), massaged, and lavage fluids wherein peritoneal exudate cells suspended were harvested. The resulting cell suspension was centrifuged at 200×g, and obtained cell pellets were treated with a Tris-ammonium buffer for 1 minute to hemolyze erythrocyte contaminants. The resulting cells were washed twice with 10% FBS/RPMI 1640, resuspended, and seeded on 96-well plates (Sumitomo Bakelite, Japan) at 5×10^5 cells/0.2 ml/well. After pre-incubation for 2 hours in an atmosphere of 5% CO2/95% air, each well was rinsed 3 times with PBS(−) to remove non-adhesive cells. 2) Cell Treatment Each test compound was dissolved in DMSO, and then in 10% FBS/RPMI 1640 to make the final DMSO concentration 0.1%. The resultant test compound solution was used herein. After pre-incubation for 0.5 hr in the above test compound solution, an aliquot of macrophages prepared in the above (1) was admixed with LPS (E. coli serotype 0127: B8; Sigma) to adjust the final LPS concentration to 0.1 μg/ml. Four hours later, culture supernatants were harvested and stored at −80° C. Amounts of TNFα in the culture supernatants were measured with a mouse TNFα ELISA kit (Quantikine/trade name; R & D Systems) according to manuals attached to the kit. For control groups, an aliquot of macrophages prepared in the above (1) was admixed with LPS to adjust the final LPS concentration to 0.1 μg/ml and then treated in the same manner as aforementioned. The resultant samples were used in obtaining the concentration of each test compound required for 50% inhibition (IC50) to each control group.

[3] abbreviates: read-out: IC50 for inhibition of TNF-α production.
Setting [4] is: read-out: IC50 for inhibition of TNF-α production (molar).

Regarding `CSc1cccc(-n2c(=O)c(CCCc3ccncc3)cc3cccnc32)c1` [Example No. 10, 1-(3-Methylthiophenyl)-3-[3-(pyridin-4-yl)propyl]-1,8-naphthyridin-2(1H)-one], the inhibition in vivo at 3 mg/kg in data set [1] came out at 82%.
`O=c1c(CCCCCc2cccnc2)cc2cccnc2n1-c1cccc([N+](=O)[O-])c1` [Example No. 16, 1-(3-Nitrophenyl)-3-[5-(pyridin-3-yl)pentyl]-1,8-naphthyridin-2(1H)-one]: in data set [1], the inhibition in vivo at 3 mg/kg is 96%.
`O=c1c(CCCc2ccncc2)cc2cccnc2n1-c1cccnc1` [Example No. 23, 1-(Pyridin-3-yl)-3-[3-(pyridin-4-yl)propyl]-1,8-naphthyridin-2(1H)-one]: the inhibition in vivo at 3 mg/kg in data set [1] stood at 90%.
For the compound `O=c1c(CCc2ccncc2)cc2cccnc2n1-c1cccc([N+](=O)[O-])c1` [Example No. 6, 1-(3-Nitrophenyl)-3-[2-(pyridin-4-yl)ethyl]-1,8-naphthyridin-2(1H)-one], the inhibition in vivo at 3 mg/kg in data set [1] was 87%.
On to `O=c1c(CCc2cccnc2)cc2cccnc2n1-c1cccc([N+](=O)[O-])c1` [Example No. 5, 1-(3-Nitrophenyl)-3-[2-(pyridin-3-yl)ethyl]-1,8-naphthyridin-2(1H)-one], for which, in data set [1], the inhibition in vivo at 3 mg/kg worked out at 90% and the “% reduction of increase in airway resistance” value is listed as 86%.
Turning to `O=c1c(CCCc2cccnc2)cc2cccnc2n1-c1cccc([N+](=O)[O-])c1` [Example No. 7, 1-(3-Nitrophenyl)-3-[3-(pyridin-3-yl)propyl]-1,8-naphthyridin-2(1H)-one], the inhibition in vivo at 3 mg/kg in data set [1] was 95%.
The same measure, in the same setting: the figure for `O=c1c(CCCCc2cccnc2)cc2cccnc2n1-c1cccc([N+](=O)[O-])c1` [Example No. 14, 1-(3-Nitrophenyl)-3-[4-(pyridin-3-yl)butyl]-1,8-naphthyridin-2(1H)-one] is 92%.
As a reminder, the IC50 is the concentration that gives 50% inhibition. Turning to `COc1ccc(C2CNC(=O)C2)cc1OC1CCCC1` (single isomer, unassigned) [Rolipram, rolipram, reference compound], the inhibition in vivo at 3 mg/kg in data set [1] is 65%. Also, in the data set with Female beagles, the “Maximum Tolerance Dose against Emesis” value was below 0.1 mg/kg. Also, the IC50 in data set [2] (setting [3]) is 0.37 µg/mL; in data set [2] (setting [4]), around 1.3 µM.
As for `O=c1c(CCCc2ccncc2)cc2cccnc2n1-c1cccc([N+](=O)[O-])c1` [Example No. 8, 1-(3-Nitrophenyl)-3-[3-(pyridin-4-yl)propyl]-1,8-naphthyridin-2(1H)-one], in data set [1], the inhibition in vivo at 3 mg/kg came out at 88% and the “% reduction of increase in airway resistance” value came to 88%. For the same compound, in the data set with Female beagles, the “Maximum Tolerance Dose against Emesis” value is listed as 0.3 mg/kg. For the same compound, the IC50 in data set [2] (setting [3]) came out at 0.34 µg/mL. Besides, the IC50 in data set [2] (setting [4]) is around 0.88 µM.
On to `O=c1c(Cc2cccnc2)cc2cccnc2n1-c1cccc([N+](=O)[O-])c1` [Example No. 2, 1-(3-Nitrophenyl)-3-(pyridin-3-ylmethyl)-1,8-naphthyridin-2(1H)-one], for which the inhibition in vivo at 3 mg/kg in data set [1] was 64%.
